Reference: patent publication US11623919B2, “Heterocyclic P2X7 antagonists” (AXXAM S.P.A., priority 2017, dated 2023)
pIC50: −log10 of the molar value.

Tests used:
Format in all cases: cell-based
[1] = target: T1, P2X7 receptor (Homo sapiens, UniProt Q99572); assay: YO-PRO-1 uptake assay; set-up: expressed in transfected cells; conditions: HEK-293 cells stably transfected with P2X7 receptor; Bz-ATP EC80 (30 μM); Low Divalent Cation Assay Buffer
T1 sequence (Q99572 1-595): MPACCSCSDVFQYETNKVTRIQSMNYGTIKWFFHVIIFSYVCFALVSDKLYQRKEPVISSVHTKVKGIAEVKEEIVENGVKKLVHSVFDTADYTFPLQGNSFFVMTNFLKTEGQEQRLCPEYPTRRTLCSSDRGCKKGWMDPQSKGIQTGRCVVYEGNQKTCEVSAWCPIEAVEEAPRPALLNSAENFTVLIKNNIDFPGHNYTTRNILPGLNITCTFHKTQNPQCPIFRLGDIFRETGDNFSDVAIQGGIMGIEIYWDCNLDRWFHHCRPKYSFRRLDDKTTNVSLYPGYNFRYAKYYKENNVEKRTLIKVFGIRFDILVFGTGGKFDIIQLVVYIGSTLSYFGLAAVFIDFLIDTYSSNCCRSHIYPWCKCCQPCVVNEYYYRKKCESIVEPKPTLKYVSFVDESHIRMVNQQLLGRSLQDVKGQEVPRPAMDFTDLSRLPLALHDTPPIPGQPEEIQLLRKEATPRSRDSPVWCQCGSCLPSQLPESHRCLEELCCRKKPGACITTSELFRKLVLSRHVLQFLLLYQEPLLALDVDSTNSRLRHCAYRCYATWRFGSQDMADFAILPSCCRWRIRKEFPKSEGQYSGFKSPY
Text: YO-PRO®-1 is a fluorescent DNA-binding dye with a MW of 374 Da (Molecular Probes®, cat. Y3603). This method is based upon the presumed ability of YO-PRO®-1 to enter through the dilated or “large pore form” of P2X7 receptor and to bind to intracellular DNA whereupon it increases many fold its fluorescence intensity. The dye ha an absorption spectrum compatible with excitation at 488 nm by argon laser sources and its emission wavelength is in the range of 515-575 nm. The aim of this assay was to validate the interaction of antagonists with P2X7 receptor using an alternative readout to Ca2+-sensitive fluorescent dyes.
HEK-293 cells stably transfected with P2X7 receptor were seeded overnight un growth medium at 20,000 cell/well in 384-well plate. 24 hours later, the medium was removed, the cells were washed with Low Divalent Cation Assay Buffer (0.3 mM Ca^2+ and 0 mM Mg^2+) and then pre-loaded with 20 μL/w of 5 μM YO-PRO®-1 dye.
FLIPRTETRA fluorescence measurement immediately started. Then 10 μL/w of test compounds and reference antagonist A438079 at 3×-concentration were injected with the FLIPRTETRA and the kinetic response over a period of five minutes was monitored. A second injection of 10 μL/w of 3× Bz-ATP EC80 (30 μM) was performed with the FLIPRTETRA and the signal of the emitted fluorescence was recorded for additional 60 minutes. All the experiment was carried out with a Low Divalent Cation Assay Buffer (0.3 mM Ca^2+ and 0 mM Mg^2+).
The effect of the test compounds was measured as percent inhibition vs the reference antagonist and IC50 values were calculated accordingly.

[2] = target: T1, P2X7 receptor; assay: Automated patch-clamp (QPatch16X) P2X7 channel assay; set-up: expressed in transfected cells; host or cells: HEK-293; conditions: HEK-293 cells expressing P2X7 channels; whole-cell, held at -80 mV; 100 microM BzATP; compound 1, 10, 100 and 1000 nM; read-out: Q-Patch (IC50)
Procedure: In order to directly monitor the block of P2X7 channel, an electrophysiological assay was developed and implemented on the QPatch16X automated electrophysiology instrument.
HEK-293 cells expressing the P2X7 channels were cultured in modified EMEM.
72 hours before experiment, 5 million cells were seeded onto T225 flasks. Just before the experiment cells were washed twice, detached from the flask with trypsin-EDTA, re-suspended in the suspension solution and placed on the QPatch 16x.
The compounds (20 mM in a 100% DMSO) stored at −20° C. were prepared the day of the experiment (a first dilution 1:20 in 100% DMSO to prepare a 1 mM stock solution, then a 1 microM solution in external solution+a serial dilution 1:10).
The standard whole-cell voltage clamp experiments were performed at room temperature. From these experiments the multihole technology was used and the data were sampled at 2 KHz.
The intracellular solution contained (mM) 135 CsF, 10 NaCl, 1 EGTA, 10 HEPES, (pH 7.2 with CsOH) whereas the extracellular contained (mM) 145 NaCl, 4 KCl, 0.5 MgCl2, 1 CaCl2, 10 HEPES, 10 Glc (pH 7.4 with NaOH).
After establishment of the seal and the passage in the whole cell configuration, the cells were held at −80 mV. The P2XR7 current was evoked by applying 100 microM of BzATP alone (4 times) and then in the presence increasing concentrations of the compound under investigation (1, 10, 100 and 1000 nM).
The pre-incubation periods 5 to 8 contain increasing concentrations of the compound of interest (1, 10, 100 and 1000 nM), as illustrated in FIGURE (application protocol).
The maximal inward current evoked by BzATP in absence or presence of increasing concentrations of the compounds under investigation was measured and normalized. The potential […] effect was measured as % of control and as IC50 determined fitting the dose-response curves data with the following equation: Y=100/(1+10^((Log IC50−X)*HillSlope))

[3] = target: T1, P2X7 receptor; assay: Screen Quest Fluo-8 No Wash Calcium Assay (Bz-ATP evoked Ca2+ influx, FLIPR); set-up: hP2X7 (IC50; nM); other: hP2X7; HEK-293 cells stably transfected with P2X7 receptor, Bz-ATP at EC80, Fluo-8 NW; potency; conditions: hP2X7; HEK-293 cells stably transfected with P2X7 receptor, Bz-ATP at EC80, Fluo-8 NW; potency ranges A-D
How it was run: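 Compounds were added to Fluo-8-loaded P2X7-transfected HEK-293 cells 5 min before an EC80 Bz-ATP challenge, and Ca2+ influx was then recorded for 3 min. Buffer held 0.3 mM Ca2+ and no Mg2+. Inhibition was normalised to A438079, giving IC50 values.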

Row | SMILES | IC50 [1] [nM] | pIC50 [2] | IC50 [3] [nM]
1 | CC1CCCCC1Cn1c(Cc2c(F)cccc2Cl)noc1=O (stereo not drawn) [Example 87, 3-[(2-chloro-6-fluorophenyl)methyl]-4-[(2-methylcyclohexyl)methyl]-4,5-dihydro-1,2,4-oxadiazol-5-one] | 82 | 7.36 | < 200
2 | O=c1onc(Cc2c(F)cccc2Cl)n1CC1CC2CCC1C2 (stereo not drawn) [Example 88, 4-{bicyclo[2.2.1]heptan-2-ylmethyl}-3-[(2-chloro-6-fluorophenyl)methyl]-4,5-dihydro-1,2,4-oxadiazol-5-one] | 63 | 7.46 | < 200
3 | O=c1onc(Cc2c(F)cccc2Cl)n1CC12CCC(CC1)C2 [Example 91, 4-{bicyclo [2.2.1]heptan-1-ylmethyl}-3-[(2-chloro-6-fluorophenyl)methyl]-4,5-dihydro-1,2,4-oxadiazol-5-one] | 45 | 7.66 | < 200
4 | O=c1onc(Cc2c(F)cccc2Cl)n1CC1CCCCCC1 [Example 92, 3-[(2-chloro-6-fluorophenyl)methyl]-4-(cycloheptylmethyl)-4,5-dihydro-1,2,4-oxadiazol-5-one] | 42 | 7.74 | < 200
5 | O=c1onc(Cc2c(F)cccc2Cl)n1CC1CCCCO1 (stereo not drawn) [Example 94, 3-[(2-chloro-6-fluorophenyl)methyl]-4-(oxan-2-ylmethyl)-4,5-dihydro-1,2,4-oxadiazol-5-one] | 435 | 6.48 | 200 to 1000
6 | O=c1onc(Cc2c(F)cccc2Cl)n1CC1(F)CCCCC1 [Example 96, 3-[(2-chloro-6-fluorophenyl)methyl]-4-[(1-fluorocyclohexyl)methyl]-4,5-dihydro-1,2,4-oxadiazol-5-one] | 523 | 6.61 | 200 to 1000
7 | O=c1onc(Cc2c(F)cccc2Cl)n1CC1CCCCC1(F)F (stereo not drawn) [Example 97, 3-[(2-chloro-6-fluorophenyl)methyl]-4-[(2,2-difluorocyclohexyl)methyl]-4,5-dihydro-1,2,4-oxadiazol-5-one] | 193 | 7.00 | < 200
8 | CC1(C)CCCCC1Cn1c(Cc2c(F)cccc2Cl)noc1=O (stereo not drawn) [Example 99, 3-[(2-chloro-6-fluorophenyl)methyl]-4-[(2,2-dimethylcyclohexyl)methyl]-4,5-dihydro-1,2,4-oxadiazol-5-one] | 142 | 6.91 | 200 to 1000
9 | O=c1onc(Cc2ccc(F)cc2Cl)n1CC1CCCCC1 [Example 114, 3-[(2-chloro-4-fluorophenyl)methyl]-4-(cyclohexylmethyl)-4,5-dihydro-1,2,4-oxadiazol-5-one] | 129 | 6.78 | 200 to 1000
10 | O=c1onc(Cc2cccc(Cl)c2Cl)n1CC1CCCCC1 [Example 115, 4-(cyclohexylmethyl)-3-[(2,3-dichlorophenyl)methyl]-4,5-dihydro-1,2,4-oxadiazol-5-one] | 399 | 7.14 | 200 to 1000
11 | O=c1onc(Cc2ccccc2C(F)(F)F)n1CC1CCCCC1 [Example 116, 4-(cyclohexylmethyl)-3-{[2-(trifluoromethyl)phenyl]methyl}-4,5-dihydro-1,2,4-oxadiazol-5-one] | 284 | 6.33 | 200 to 1000
12 | O=c1onc(Cc2ccccc2Cl)n1CC1CCCCC1 [Example 117, 3-[(2-chlorophenyl)methyl]-4-(cyclohexylmethyl)-4,5-dihydro-1,2,4-oxadiazol-5-one] | 143 | 7.02 | 200 to 1000
13 | O=c1onc(Cc2ccc(Cl)cc2Cl)n1CC1CCCCC1 [Example 118, 4-(cyclohexylmethyl)-3-[(2,4-dichlorophenyl)methyl]-4,5-dihydro-1,2,4-oxadiazol-5-one] | 618 | 5.96 | 200 to 1000
14 | O=c1onc(Cc2ccc(F)cc2F)n1CC1CCCCC1 [Example 119, 4-(cyclohexylmethyl)-3-[(2,4-difluorophenyl)methyl]-4,5-dihydro-1,2,4-oxadiazol-5-one] | 547 | 6.57 | 200 to 1000
15 | O=c1onc(Cc2ccccc2F)n1CC1CCCCC1 [Example 120, 4-(cyclohexylmethyl)-3-[(2-fluorophenyl)methyl]-4,5-dihydro-1,2,4-oxadiazol-5-one] | 590 | 6.79 | 200 to 1000
16 | O=c1onc(CC2CCCCC2)n1Cc1c(F)cccc1Cl [Example 130, 4-[(2-chloro-6-fluorophenyl)methyl]-3-(cyclohexylmethyl)-4,5-dihydro-1,2,4-oxadiazol-5-one] | 233 | 7.02 | 200 to 1000
17 | O=c1onc(CC2CCC(F)(F)CC2)n1Cc1c(F)cccc1Cl [Example 132, 4-[(2-chloro-6-fluorophenyl)methyl]-3-[(4,4-difluorocyclohexyl)methyl]-4,5-dihydro-1,2,4-oxadiazol-5-one] | 32 | 8.47 | < 200
18 | O=c1snc(Cc2c(F)cccc2Cl)n1CC1CCCCC1 [Example 140, 3-[(2-chloro-6-fluorophenyl)methyl]-4-(cyclohexylmethyl)-4,5-dihydro-1,2,4-thiadiazol-5-one] | 181 | 7.41 | 200 to 1000
19 | O=c1snc(Cc2c(F)cccc2Cl)n1CC1CCC(F)(F)CC1 [Example 141, 3-[(2-chloro-6-fluorophenyl)methyl]-4-[(4,4-difluorocyclohexyl)methyl]-4,5-dihydro-1,2,4-thiadiazol-5-one] | 31 | 8.52 | < 200
20 | O=c1onc(Cc2c(F)cccc2Cl)n1CCC1CCCCC1 [Example 142, 3-(2-chloro-6-fluorobenzyl)-4-(2-cyclohexylethyl)-1,2,4-oxadiazol-5(4H)-one] | 467 | 6.82 | 200 to 1000
